Experimental data from article PMC10385868 (Viruses, 2023).
“And” between values parts separate entries of the source, which are not always exact repeats. Equal entries are not always repeated.

Columns and labels:
VEEV nsP2 protease = VEEV nsP2 protease (Venezuelan equine encephalitis virus, UniProt P27282); assay: biochemical
CHIKV nsP2 protease = CHIKV nsP2 protease (Chikungunya virus, UniProt Q8JUX6); type: biochemical
WEEV nsP2 protease = WEEV nsP2 protease (Western equine encephalitis virus, UniProt P13896); type: biochemical
A549 = details: African green monkey
[1] = SD, rat

Sequence of VEEV nsP2 protease (P27282 1003-1322 limits assumed): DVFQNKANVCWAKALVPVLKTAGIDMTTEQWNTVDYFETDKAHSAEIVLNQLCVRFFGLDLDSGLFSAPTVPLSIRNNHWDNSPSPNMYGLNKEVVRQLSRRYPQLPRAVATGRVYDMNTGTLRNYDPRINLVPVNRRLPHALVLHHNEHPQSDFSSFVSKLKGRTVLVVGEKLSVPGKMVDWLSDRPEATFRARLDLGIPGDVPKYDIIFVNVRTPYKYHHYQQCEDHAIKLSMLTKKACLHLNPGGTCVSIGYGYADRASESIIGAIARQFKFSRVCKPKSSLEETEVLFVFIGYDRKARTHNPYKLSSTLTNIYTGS
Sequence of WEEV nsP2 protease (P13896 1001-1320 limits assumed): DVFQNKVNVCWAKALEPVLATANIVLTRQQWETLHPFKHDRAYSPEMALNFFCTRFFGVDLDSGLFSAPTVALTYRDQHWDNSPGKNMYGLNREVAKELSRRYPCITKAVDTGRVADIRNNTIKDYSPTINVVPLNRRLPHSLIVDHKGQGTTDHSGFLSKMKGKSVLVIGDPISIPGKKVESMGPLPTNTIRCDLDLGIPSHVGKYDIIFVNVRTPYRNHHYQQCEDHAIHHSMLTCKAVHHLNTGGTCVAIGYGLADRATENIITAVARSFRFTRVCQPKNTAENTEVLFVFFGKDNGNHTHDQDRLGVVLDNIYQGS
Sequence of CHIKV nsP2 protease (Q8JUX6 1004-1327 limits assumed): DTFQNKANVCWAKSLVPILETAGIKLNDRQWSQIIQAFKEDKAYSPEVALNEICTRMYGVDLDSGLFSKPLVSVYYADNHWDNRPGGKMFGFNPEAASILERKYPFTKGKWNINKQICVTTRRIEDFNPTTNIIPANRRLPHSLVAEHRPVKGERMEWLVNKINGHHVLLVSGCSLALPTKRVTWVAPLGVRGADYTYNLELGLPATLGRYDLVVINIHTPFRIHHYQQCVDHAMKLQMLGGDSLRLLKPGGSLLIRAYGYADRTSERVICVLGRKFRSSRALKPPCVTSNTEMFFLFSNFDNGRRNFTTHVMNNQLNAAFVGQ

CCCNC(=O)[C@H]1O[C@@H]1C(=O)N[C@H](C(=O)N1CCC[C@H]1C(=O)O)[C@@H](C)CC [CA074]
enhancement of inhibitor binding by Mg^2+ and Mn^2+ (VEEV nsP2 protease): 3 to 6 fold | k2/Ki (VEEV nsP2 protease; 50 mm hepes, pH 7): 0.0002 ± 0.0002 µM⁻¹ min⁻¹ | Ki (VEEV nsP2 protease; Ki): 1200 µM and 410 µM and 210 µM and 2000 µM | kinact/KI (VEEV nsP2 protease; pH 7, read-out: k2/Ki): 3.33 M⁻¹ s⁻¹ | inhibition of CHIKV nsP2 protease (CHIKV nsP2 protease): inhibited | inhibition of WEEV nsP2 protease (WEEV nsP2 protease): inhibited | CC50 (A549): > 100 µM | Microsomal Stability t1/2 [1]: >30 min | Rat_SD/Microsomes t1/2 [1]: >30 m | PAMPA: <1e-06 cm/s | Permeability (PAMPA_Pion_Lipid) (PAMPA): <1e-06 cm/s
